Experimental data reported in patent publication US8680282B2, “Cyclic inhibitors of carnitine palmitoyltransferase and treating cancer” (University Health Network, priority 2007, dated 2014).

Tests used:
human CPT1A = target: T1, human CPT1A (Homo sapiens, UniProt P50416); test: Human CPT1A LC/MS assay; format: biochemical
T1 construct: made in house; host or cells: Saccharomyces cerevisiae (pESC-trp) or cultured mammalian cells (pCDNA3.1); mitochondrial extract
T1 sequence (P50416 1-773): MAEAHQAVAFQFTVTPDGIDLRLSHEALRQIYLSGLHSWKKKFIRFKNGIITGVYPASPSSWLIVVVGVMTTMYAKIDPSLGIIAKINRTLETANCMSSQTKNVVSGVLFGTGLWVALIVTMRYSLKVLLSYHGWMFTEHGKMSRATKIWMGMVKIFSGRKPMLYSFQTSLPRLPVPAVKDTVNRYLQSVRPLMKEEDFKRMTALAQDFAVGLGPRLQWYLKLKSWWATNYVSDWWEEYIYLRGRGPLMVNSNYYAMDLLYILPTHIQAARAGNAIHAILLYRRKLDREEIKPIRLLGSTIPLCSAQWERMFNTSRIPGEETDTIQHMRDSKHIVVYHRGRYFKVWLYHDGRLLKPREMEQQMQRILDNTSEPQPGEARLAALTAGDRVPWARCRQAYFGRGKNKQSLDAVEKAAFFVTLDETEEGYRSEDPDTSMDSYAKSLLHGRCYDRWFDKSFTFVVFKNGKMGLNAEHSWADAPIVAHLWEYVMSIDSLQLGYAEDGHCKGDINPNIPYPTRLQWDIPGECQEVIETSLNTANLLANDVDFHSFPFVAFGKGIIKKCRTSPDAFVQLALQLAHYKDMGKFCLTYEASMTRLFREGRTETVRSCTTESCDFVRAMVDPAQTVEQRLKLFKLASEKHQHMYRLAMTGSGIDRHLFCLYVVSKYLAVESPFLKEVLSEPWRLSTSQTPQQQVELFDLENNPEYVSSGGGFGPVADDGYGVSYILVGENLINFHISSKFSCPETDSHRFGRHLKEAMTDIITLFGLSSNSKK
Excerpt: Nucleotide sequences encoding human CPT1 enzymes were individually cloned into the yeast expression vector pESC-trp at the Cla1 (5′ terminus) and Pac1 (3′ terminus) restriction sites by PCR amplification of the open reading frame using oligonucleotide primers designed to encode the wild-type CPT1 protein sequence. Standard molecular biology techniques were used to transform and express the CPT1 proteins in the yeast Saccharomyces cerevisiae. The yeast cells were lysed by enzymatic degradation of the cell wall by Zymolase, and the mitochondria were isolated by standard biochemical techniques. The integrity of the isolated mitochondria was monitored by determining the activity of succinate dehydrogenase in the mitochondrial preparations. The mitochondrial extracts were stored at −80° C. in buffer containing 10 mM HEPES pH 7.4 and 250 mM sucrose.
Human CPT1 (A, B, C) genes were additionally cloned into the pCDNA3.1 vector individually for expression in cultured mammalian cells. Cells expressing the exogenous CPT1A were identified and grown under standard conditions. Mammalian cells were harvested, and mitochondrial extracts prepared using standard biochemical methods. The mitochondrial extracts were stored at −80° C. in buffer containing 10 mM HEPES pH 7.4 and 250 mM sucrose.
Assays were performed in 96-well plate format. Each 100 μL reaction contained 40 mM KCl, 50 mM TrisHCl pH 7.5, and 250 mM mannitol (Assay Buffer), and 1.6 μg protein of an extract, 20 μM palmitoyl-CoA, 50 μM L-carnitine, and 10 ug/mL BSA. Reactions were incubated at room temperature and stopped after 10 minutes by extraction with 200 μL of water saturated n-butanol containing myristoyl carnitine (500 nM) as an internal standard. The samples were thoroughly mixed, and the phases separated by centrifugation. Samples were prepared for analysis with a 10 fold dilution of the n-butanol phase containing the reaction product palmitoyl carnitine into a 50:50 (acetonitrile:water) solvent for analysis. 5 μL of prepared sample was separated on a Phenomenex Jupiter 5μ C4 reverse-phase column using an Agilent 1100 HPLC with a gradient from 50% acetonitrile (0.5% acetic acid) to 100% acetonitrile and quantified by detection with a Bruker Esquire 3000plus mass spectrometer. The abundance of the palmitoyl carnitine product was determined relative to the internal standard and the actual quantity of palmitoyl carnitine can be determined from a standard curve prepared using the n-butanol solution containing the internal standard.
Compounds were evaluated in two formats, a screening format, and a dose response format. The screening format was performed by adding 25 μL compound in 20% DMSO and Assay Buffer to 25 μL of extract containing […] and Assay Buffer, followed by a 10 minute incubation at room temperature. 50 μL of 40 μM palmitoyl-CoA in Assay Buffer was added to the reaction mixture, mixed and incubated for 10 minutes at room temperature. A negative control for activity was also performed where the carnitine was omitted from the reaction. A positive control for activity was also performed by omitting compound from the solution containing 20% DMSO and Assay Buffer. The reaction mixture was extracted and analyzed as described above. The inhibition by compound was determined by comparing the control relative activity to the relative activity observed in wells containing the compound. Relative activity was determined by subtracting the relative intensity (area palmitoyl carnitine/area myristoyl carnitine) observed in the negative control from the relative intensity observed in the experimental well, and dividing by the relative activity observed in the positive control.
[formula] Compound characterization by dose response format was performed using the above described assay conditions and a 16 point compound titration in 2 fold compound dilution steps. The DMSO concentration was kept constant at 20% (v/v) for all compound concentrations.

H358 = test: Cancer cell growth inhibition, SRB assay; format: cell-based, human; parameters: Percentage of Growth Inhibition: unit not given here; conditions: H358; at 10 μM; SRB at Day 6; NE = no activity at 10 micromolar
Method: (§1) Human cancer cells (MCF-7, H358, H460, HCT116 p53^+/+, HCT116 p53^−/−, A172, PC-3, DU-145 and SW626) were maintained in DMEM medium containing 10% Fetal Bovine Serum (FBS) (Invitrogen, Burlington, ON, Canada) and normal cells HMEC, 184A1, NHBE and PrEC were cultured in MEGM, MEGM plus transferring and cholera toxin, BEGM and PrEGM supplemented with various growth factors (Cambrex, Charles city, Iowa, USA), respectively.
(§2) Compounds of Examples S1 to S30, and 4-(carboxymethyl)-4-(6-(3-hexyloxy)phenoxy)hexanoamido)-1,1-dimethylpiperidinium 2,2,2-trifluoroactate (“Compound A”) were tested in this example. Each of the tested compounds was dissolved in DMSO and further diluted in cell culture medium for the experiments performed. Cells were seeded into 96-well plates with 1,500-5,000 cells/well according to cell growth rate. After 24 h, DMEM medium containing 10% FBS were changed to DMEM containing 3% FBS for cancer cells. The compound was added into the cell culture at the indicated concentrations, and the final concentration of DMSO was adjusted to a final concentration of 0.1%. Cell viability was assessed by Sulforhodamine B (SRB) assay at Day 6.
(§3) Sulforhodamine B (SRB) (Sigma, Oakville, ON, Canada) is a water-soluble dye that binds to the basic amino acids of the cellular proteins. Thus, colorimetric measurement of the bound dye provides an estimate of the total protein mass that is related to the cell number. The cells were fixed in situ by gently aspirating off the culture media and adding 50 ul of cold 10% Tri-chloroacetic Acid (TCA) per well and incubated at 4° C. for 30-60 min. The plates were washed five times with water and allowed to air dry for 5 min. 50 ul of 0.4% (w/v) SRB dissolved in 1% (v/v) acetic acid were added into each well, plates were then incubated at RT for 30 min for staining, washed four times with 1% acetic acid to remove any unbound dye and then allowed to air dry for 5 min. Stain was solubilized with 100 ul of 10 mM Tris pH 10.5 per well. Absorbance was read at 570 nm on a spectrophotometer. GI50 (compound concentration required for 50% of growth inhibition) was calculated using GraphPad Prism 4.0 software (GraphPad Software, Inc., San Diego, Calif., USA). Growth inhibition (%) was determined as percentage of cells remaining compared to the DMSO-treated cells as control.

SW620 = test: Cancer cell growth inhibition, SRB assay; format: cell-based, human; parameters: Percentage of Growth Inhibition: scale not given here; conditions: SW620; at 10 μM; SRB at Day 6; NE = no activity at 10 micromolar
HCT-15 = test: Cancer cell growth inhibition, SRB assay; format: cell-based, human; parameters: Percentage of Growth Inhibition: scale not given here; conditions: HCT-15; at 10 μM; SRB at Day 6; NE = no activity at 10 micromolar
SW480 = test: Cancer cell growth inhibition, SRB assay; format: cell-based, human; conditions: SW480; at 10 μM; SRB at Day 6; NE = no activity at 10 micromolar
COLO-205 = test: Cancer cell growth inhibition, SRB assay; format: cell-based, human; conditions: COLO-205; at 10 μM; SRB at Day 6; NE = no activity at 10 micromolar
PC-3 = test: Cancer cell growth inhibition, SRB assay; format: cell-based, human; conditions: PC-3; at 10 μM; SRB at Day 6; NE = no activity at 10 micromolar
Method: as §1, §2, §3

A172 = test: Cancer cell growth inhibition, SRB assay; format: cell-based, human; conditions: A172; at 10 μM; SRB at Day 6; NE = no activity at 10 micromolar
Method: as §1, §2, §3

SW626 = test: Cancer cell growth inhibition, SRB assay; format: cell-based, human; parameters: Percentage of Growth Inhibition: scale not given here; conditions: SW626; at 10 μM; SRB at Day 6; NE = no activity at 10 micromolar
Method: as §1, §2, §3

MCF-7 = test: Cancer cell growth inhibition, SRB assay; format: cell-based, human; parameters: Percentage of Growth Inhibition: scale not given here; conditions: MCF-7; at 10 μM; SRB at Day 6; NE = no activity at 10 micromolar
Method: as §1, §2, §3

HCT-8 = test: Cancer cell growth inhibition, SRB assay; format: cell-based, human; conditions: at 10 μM, SRB at Day 6
[1] = human CPT1A LC/MS assay, dose response format

CCCCCCCCc1ccc(NC(=O)NC2(CC(=O)O)CCN(C)C2)cc1 (centres unmarked) [Example S17, 3-(carboxymethyl)-1-methyl-3-(3-(4-octylphenyl)ureido)pyrrolidinium 2,2,2-trifluoroacetate]
IC50 (human CPT1A; [1]): 10 to 100 µM

C[N+]1(C)CCCC(CC(=O)O)(NC(=O)c2ccc(CCc3ccccc3)o2)C1 (centres unmarked) [Example S14, 3-(carboxymethyl)-1,1-dimethyl-3-(5-phenethylfuran-2-carboxamido)piperidinium 2,2,2-trifluoroacetate]
Percentage of Growth Inhibition (H358): 0.3919
Percentage of Growth Inhibition (SW620): 0.04122%
IC50 (human CPT1A; [1]): 10 to 100 µM

C[N+](C)(C)C[C@H](N)CC(=O)[O-] [L-aminocarnitine, reference compound]
IC50 (human CPT1A; dose response assay, n=17): 7 ± 2.5 µM

CN1CCCC(CC(=O)O)(NC(=O)c2ccc(CCc3ccccc3)o2)C1 (centres unmarked) [Example S13, 3-(carboxymethyl)-1-methyl-3-(5-phenethylfuran-2-carboxamido)-piperidinium 2,2,2-trifluoroacetate]
IC50 (human CPT1A; [1]): 100 to 1000 µM

CCCCCCCCc1ccc(NC(=O)NC2(CC(=O)O)CCN(C)CC2)cc1 [Example S1, 4-(carboxymethyl)-1-methyl-4-(3-(4-octylphenyl)ureido)piperidinium 2,2,2-trifluoroacetate]
Percentage of Growth Inhibition (H358): 0.4324
Percentage of Growth Inhibition (SW620): 0.04345%
Percentage of Growth Inhibition (HCT-15): 0.05911%
Percentage of Growth Inhibition (SW480): 0.08459%
Percentage of Growth Inhibition (COLO-205): 0.07287%
Percentage of Growth Inhibition (PC-3): 0.1924%
Percentage of Growth Inhibition (A172): 0.1571%
Percentage of Growth Inhibition (SW626): 0.05142%
Percentage of Growth Inhibition (MCF-7): 0.1204%

CCCCCCCCc1ccc(NS(=O)(=O)NC2(CC(=O)O)CNC2)cc1.O=C(O)C(F)(F)F [Example S28, 3-(carboxymethyl)-3-(N-(4-octylphenyl)sulfamoylamino)azetidinium 2,2,2-trifluoroacetate]
Percentage of Growth Inhibition (H358): 0.06989
IC50 (human CPT1A; [1]): > 2500 µM
Percentage of Growth Inhibition (HCT-8): 0.06675%
Percentage of Growth Inhibition (PC-3): 0.6043%
Percentage of Growth Inhibition (A172): 0.3077%
Percentage of Growth Inhibition (SW626): 0.04727%
Percentage of Growth Inhibition (MCF-7): 0.04154%

CCCCCc1ccc(S(=O)(=O)NC2(CC(=O)O)CCC[N+](C)(C)C2)cc1 (centres unmarked) [Example S12, 3-(carboxymethyl)-1,1-dimethyl-3-(4-pentylphenylsulfonamido)-piperidinium 2,2,2-trifluoroacetate]
Percentage of Growth Inhibition (H358): 0.04495
IC50 (human CPT1A; [1]): ≤ 1 µM
Percentage of Growth Inhibition (COLO-205): 0.1281%
Percentage of Growth Inhibition (A172): 0.07689%
Percentage of Growth Inhibition (SW626): 0.00486%
Percentage of Growth Inhibition (MCF-7): 0.2351%

CCCCCc1ccc(S(=O)(=O)NC2(CC(=O)O)CCN(C)C2)cc1 (centres unmarked) [Example S19, 3-(carboxymethyl)-1-methyl-3-(4-pentylphenylsulfonamido)-pyrrolidinium 2,2,2-trifluoroacetate]
IC50 (human CPT1A; [1]): 100 to 1000 µM
Percentage of Growth Inhibition (MCF-7): 0.08166%

CCCCCc1ccc(S(=O)(=O)NC2(CC(=O)O)CNC2)cc1 [Example S25, 3-(carboxymethyl)-3-(4-pentylphenylsulfonamido)azetidinium 2,2,2-trifluoroacetate]
Percentage of Growth Inhibition (H358): 0.05754
Percentage of Growth Inhibition (HCT-15): 0.00572%
IC50 (human CPT1A; [1]): > 2500 µM
Percentage of Growth Inhibition (SW626): 0.07606%
Percentage of Growth Inhibition (MCF-7): 0.1452%
